The subject of experiment [1] is DU-145. Kind of experiment: Cytotoxicity against human DU-145 cells assessed as cell viability at 20 uM incubated for 72 hrs by resazurin dye based microplate reader assay. Format: functional. The following applies: read-out: Activity.
For experiment [2], the system named is CWR22R. Nature of the experiment: Cytotoxicity against human 22Rv1 cells assessed as cell viability at 20 uM incubated for 72 hrs by resazurin dye based microplate reader assay. Format: functional. Particulars: read-out: Activity. For orientation: Resazurin is reduced to fluorescent resorufin, in cell work by metabolically active cells.
For experiment [3], the system named is LAPC4. Nature of the experiment: Inhibition of colony formation in human LAPC4 cells at 10 uM incubated for 10 days by crystal violet staining based assay. Format: functional. Particulars: LAPC4, 240 h, time 10 day.
Experiment [4] deals with LAPC4. Kind of experiment: Downregulation of PSA protein expression in human LAPC4 cells at 10 uM incubated for 24 hrs by immunoblotting analysis. Format: functional, cell-based. (Immunoblotting shows a protein as a band on a membrane.)
The nature of experiment [5]: Downregulation of AR protein expression in human LAPC4 cells assessed as AR levels at 10 uM incubated for 24 hrs by immunoblotting analysis. The format is functional.
Experiment [6] relates to LAPC4. Kind of experiment: Cytotoxicity against human LAPC4 cells assessed as cell viability at 20 uM incubated for 72 hrs by resazurin dye based microplate reader assay. The format is functional. The following applies: read-out: Activity.
For experiment [7], the system named is LAPC4. Kind of experiment: Downregulation of Nkx3.1 protein expression in human LAPC4 cells at 10 uM incubated for 24 hrs by immunoblotting analysis. Format: functional, cell-based.
For experiment [8], the system named is LAPC4. Nature of the experiment: Inhibition of colony formation in human LAPC4 cells at 5 uM incubated for 10 days by crystal violet staining based assay. The format is functional, cell-based. Particulars: time 10.0 day.

The structures appear in SMILES notation. Active and inactive are the calls of the source. The calls are words filed in the database; no cut-off is given here.

By inhibition is commonly meant the change of the read-out against control, counted positive when it falls.

For the molecule `Cc1c2c(nn1C)C[C@@H]1CC[C@@H]3[C@H](CC[C@]4(C)[C@@H](O)CC[C@@H]34)[C@@]1(C)C2`, the viability at 20 µM stood at 98% in experiment [1], 52% in experiment [2] and 52% in experiment [6]. Also, at 10 µM the inhibition in experiment [3] was 36%. Moreover, the result in experiment [4] and in experiment [7] was inactive. In experiment [5], the Activity was 98%.
For the molecule `Cc1ccc(-n2cc3c(n2)C[C@@H]2CC[C@@H]4[C@H](CC[C@]5(C)[C@@H](O)CC[C@@H]45)[C@@]2(C)C3)cc1`, the viability at 20 µM is 100% in experiment [1], no less than 100% in experiment [2] and no less than 100% in experiment [6]. Moreover, 10 µM produced 42% inhibition in experiment [3]. Besides, the result in experiment [4] and in experiment [7] was inactive. Moreover, the Activity result in experiment [5] is recorded as “>=100%”.
Turning to `COc1ccc(-n2cc3c(n2)C[C@@H]2CC[C@@H]4[C@H](CC[C@]5(C)[C@@H](O)CC[C@@H]45)[C@@]2(C)C3)cc1`, the viability at 20 µM is no less than 100% in experiment [1], no less than 100% in experiment [2] and 99% in experiment [6]. Besides, in experiment [3], the inhibition at 10 µM came out at 65%. The outcome in experiment [4] and in experiment [7] was inactive. The Activity result in experiment [5] is listed as “>=100%”.
`COc1ccc(-c2c3c(nn2C)C[C@@H]2CC[C@@H]4[C@H](CC[C@]5(C)C(=O)CC[C@@H]45)[C@@]2(C)C3)cc1`: the viability at 20 µM in experiment [1] was 97%; in experiment [2], 58%; in experiment [6] it was 35%. Moreover, the inhibition result in experiment [8] was “Active”. This molecule displayed an inhibition at 10 µM in experiment [3] of 34%. For the same molecule, in experiment [5], the Activity result was “>=100%”.
On to `C[C@]12Cc3c(nn(-c4ccccc4)c3-c3ccc(O)cc3)C[C@@H]1CC[C@@H]1[C@@H]2CC[C@]2(C)[C@@H](O)CC[C@@H]12`, for which the viability at 20 µM came to 57% in experiment [1], 37% in experiment [2] and 63% in experiment [6]. In addition, the inhibition at 10 µM in experiment [3] was 22%. Moreover, the result in experiment [4] and in experiment [7] was inactive. In addition, the Activity result in experiment [5] was “>=100%”.
`Cn1nc2c(c1-c1ccc(F)cc1)C[C@@]1(C)[C@@H](CC[C@@H]3[C@@H]1CC[C@]1(C)[C@@H](O)CC[C@@H]31)C2`: the viability at 20 µM in experiment [1] is 89%; in experiment [2] it was 26%; in experiment [6], 44%. The inhibition entry in experiment [8] is “Active”. In experiment [3], 10 µM produced 16% inhibition. In addition, in experiment [5], the Activity worked out at 83%.
With `COc1ccc(-c2c3c(nn2C)C[C@@H]2CC[C@@H]4[C@H](CC[C@]5(C)[C@@H](O)CC[C@@H]45)[C@@]2(C)C3)cc1`, the viability at 20 µM in experiment [1] was no less than 100%; in experiment [2], 33%; in experiment [6], 51%. The inhibition result in experiment [8] is “Active”. The molecule also came in with an inhibition at 10 µM in experiment [3] of 5%. Moreover, the Activity in experiment [5] is recorded as 85%.
With `Cn1nc2c(c1-c1ccco1)C[C@@]1(C)[C@@H](CC[C@@H]3[C@@H]1CC[C@]1(C)C(=O)CC[C@@H]31)C2`, the viability at 20 µM was 100% in experiment [1], 43% in experiment [2] and 39% in experiment [6]. For the same molecule, the inhibition result in experiment [8] is “Active”. In experiment [3], this molecule had an inhibition at 10 µM of 5%. In addition, in experiment [5], the Activity came to 97%.
For the molecule `Cn1nc2c(c1-c1ccc(F)cc1)C[C@@]1(C)[C@@H](CC[C@@H]3[C@@H]1CC[C@]1(C)C(=O)CC[C@@H]31)C2`, the viability at 20 µM in experiment [1] was 90%; in experiment [2] it was 57%; in experiment [6], 29%. Moreover, the inhibition entry in experiment [8] was “Active”. The molecule also showed an inhibition at 10 µM in experiment [3] of 17%. Besides, the Activity in experiment [5] is reported as 100%.
For the molecule `Cn1nc2c(c1-c1ccccc1)C[C@@]1(C)[C@@H](CC[C@@H]3[C@@H]1CC[C@]1(C)C(=O)CC[C@@H]31)C2`, the results for the viability at 20 µM in experiment [1], in experiment [2] and in experiment [6] were no less than 100%, 68% and 36%, respectively. The inhibition result in experiment [8] is “Active”. In addition, at 10 µM the inhibition in experiment [3] was 21%. Besides, the Activity in experiment [5] was 65%.
As for `Cn1nc2c(c1-c1ccc(Cl)cc1)C[C@@]1(C)[C@@H](CC[C@@H]3[C@@H]1CC[C@]1(C)[C@@H](O)CC[C@@H]31)C2`, the viability at 20 µM in experiment [1] was 90%; in experiment [2] it was 29%; in experiment [6], 41%. Moreover, in experiment [8], the inhibition entry was “Active”. The molecule also yielded an inhibition at 10 µM in experiment [3] of 26%. Further, the Activity in experiment [5] was 91%.
As to `C[C@]12Cc3cn(-c4ccc(Br)cc4)nc3C[C@@H]1CC[C@@H]1[C@@H]2CC[C@]2(C)[C@@H](O)CC[C@@H]12`, the viability at 20 µM is no less than 100% in experiment [1], 83% in experiment [2] and 79% in experiment [6]. The molecule also had an inhibition at 10 µM in experiment [3] of 24%. Further, the outcome in experiment [4] and in experiment [7] was inactive. Besides, in experiment [5], the Activity result was “>=100%”.
Turning to `C[C@]12Cc3cn(-c4ccc(C#N)cc4)nc3C[C@@H]1CC[C@@H]1[C@@H]2CC[C@]2(C)[C@@H](O)CC[C@@H]12`, the viability at 20 µM came out at 97% in experiment [1], 94% in experiment [2] and 93% in experiment [6]. For the same molecule, in experiment [3], the inhibition at 10 µM stood at 76%. In addition, the result in experiment [4] and in experiment [7] was inactive. In experiment [5], the Activity result is “>=100%”.
On to `C[C@]12Cc3c(nn(-c4ccccc4)c3-c3ccc(Cl)cc3)C[C@@H]1CC[C@@H]1[C@@H]2CC[C@]2(C)[C@@H](O)CC[C@@H]12`, for which the viability at 20 µM in experiment [1] was 5%; in experiment [2] it was 4%; in experiment [6] it was 30%. The molecule also had an inhibition at 10 µM in experiment [3] of 47%. Also, the outcome in experiment [4] and in experiment [7] was inactive. Further, the Activity result in experiment [5] is listed as “>=100%”.
In the case of `Cn1nc2c(c1-c1ccc(Cl)cc1)C[C@@]1(C)[C@@H](CC[C@@H]3[C@@H]1CC[C@]1(C)C(=O)CC[C@@H]31)C2`, the viability at 20 µM is 98% in experiment [1], 61% in experiment [2] and 21% in experiment [6]. In experiment [8], the inhibition entry is “Active”. In addition, in experiment [3], 10 µM produced 11% inhibition. Further, the Activity in experiment [5] turned out to be 67%.
For the molecule `Cc1ccc(-c2c3c(nn2C)C[C@@H]2CC[C@@H]4[C@H](CC[C@]5(C)C(=O)CC[C@@H]45)[C@@]2(C)C3)cc1`, the viability at 20 µM was no less than 100% in experiment [1], 73% in experiment [2] and 34% in experiment [6]. The inhibition entry in experiment [8] was “Active”. For the same molecule, the inhibition at 10 µM in experiment [3] was found to be 23%. In addition, the Activity in experiment [5] came out at 92%.
Take `Cc1c2c(nn1-c1ccc(Br)cc1)C[C@@H]1CC[C@@H]3[C@H](CC[C@]4(C)[C@@H](O)CC[C@@H]34)[C@@]1(C)C2`: the viability at 20 µM in experiment [1] stood at 89%; in experiment [2], 50%; in experiment [6], 52%. The inhibition entry in experiment [8] was “Active”. In experiment [3], the inhibition at 10 µM worked out at 5%.
For `Cc1ccc(-n2nc3c(c2C)C[C@@]2(C)[C@@H](CC[C@@H]4[C@@H]2CC[C@]2(C)C(=O)CC[C@@H]42)C3)cc1`, in that order: no less than 100%, 97%, 87%, “Active” and 54%.
Regarding `Cc1ccc(-c2c3c(nn2C)C[C@@H]2CC[C@@H]4[C@H](CC[C@]5(C)[C@@H](O)CC[C@@H]45)[C@@]2(C)C3)cc1`, the viability at 20 µM in experiment [1] is 98%; in experiment [2] it was 36%; in experiment [6], 52%. In addition, the inhibition result in experiment [8] is “Active”. In addition, the inhibition at 10 µM in experiment [3] amounted to 28%. The Activity in experiment [5] worked out at 96%.
Regarding `Cn1nc2c(c1-c1ccc(Br)cc1)C[C@@]1(C)[C@@H](CC[C@@H]3[C@@H]1CC[C@]1(C)[C@@H](O)CC[C@@H]31)C2`, the viability at 20 µM is 94% in experiment [1], 21% in experiment [2] and 42% in experiment [6]. Further, in experiment [8], the inhibition entry was “Active”. In addition, testing at 10 µM in experiment [3] gave an inhibition of 16%. The Activity in experiment [5] came out at 79%.
In the case of `COc1ccc(-n2nc3c(c2C)C[C@@]2(C)[C@@H](CC[C@@H]4[C@@H]2CC[C@]2(C)[C@@H](O)CC[C@@H]42)C3)cc1`, the viability at 20 µM in experiment [1] came out at 29%; in experiment [2], 54%; in experiment [6] it was 82%. Besides, the inhibition result in experiment [8] was “Active”. Also, the inhibition at 10 µM in experiment [3] turned out to be 7%.
On to `Cn1nc2c(c1-c1ccccc1)C[C@@]1(C)[C@@H](CC[C@@H]3[C@@H]1CC[C@]1(C)[C@@H](O)CC[C@@H]31)C2`, for which the viability at 20 µM in experiment [1] came out at 100%; in experiment [2] it was 48%; in experiment [6], 51%. In addition, in experiment [8], the inhibition entry was “Active”. In experiment [3], this molecule gave an inhibition at 10 µM of 2%. Besides, the Activity in experiment [5] is given as 93%.
As for `Cn1nc2c(c1-c1cccs1)C[C@@]1(C)[C@@H](CC[C@@H]3[C@@H]1CC[C@]1(C)C(=O)CC[C@@H]31)C2`, the figures for the viability at 20 µM in experiment [1], in experiment [2] and in experiment [6] were 100%, 68% and 31%, respectively. Also, in experiment [8], the inhibition result is “Active”. Besides, in experiment [3], the inhibition at 10 µM was 4%. For the same molecule, in experiment [5], the Activity is 92%.

Values taken from ChEMBL document CHEMBL5346877, “A-ring-fused pyrazoles of dihydrotestosterone targeting prostate cancer cells via the downregulation of the androgen receptor” (Eur J Med Chem, 2023).
